Data on seven compounds can be found in ChEMBL document CHEMBL1201862, “PubChem BioAssay data set” (2004).

One may read the EC50 as the concentration giving half of the maximal effect. By IC50 is commonly meant the concentration that inhibits the measured activity by half. Broadly, the Ki is a measure of affinity in units of concentration, obtained from inhibition or displacement.

Experiment [1] concerns the target Neurotensin receptor type 1 (Homo sapiens, UniProt P30989). In kind it is functional.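 Note: Image-based confirmatory dose-response assay measuring agonist activity at NTR1; NTR1-expressing U2OS osteosarcoma cells imaged for beta-arrestin GFP spot formation; agonist potency where compounds increase beta-arrestin recruitment.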
Experiment [2] has as its target T1, Oxysterols receptor LXR-beta (Homo sapiens, UniProt P55055).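 Note: Cell-based luminescence dose-response assay of agonist activity at LXR, run as a confirmatory counterscreen to a daf-12 agonist screen; HEK293 cells with Gal4-LXR fusion and GAL4-driven luciferase reporter; agonist potency from rising luciferase signal of a Gal4-LXR reporter.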
T1 sequence (P55055 whole entry): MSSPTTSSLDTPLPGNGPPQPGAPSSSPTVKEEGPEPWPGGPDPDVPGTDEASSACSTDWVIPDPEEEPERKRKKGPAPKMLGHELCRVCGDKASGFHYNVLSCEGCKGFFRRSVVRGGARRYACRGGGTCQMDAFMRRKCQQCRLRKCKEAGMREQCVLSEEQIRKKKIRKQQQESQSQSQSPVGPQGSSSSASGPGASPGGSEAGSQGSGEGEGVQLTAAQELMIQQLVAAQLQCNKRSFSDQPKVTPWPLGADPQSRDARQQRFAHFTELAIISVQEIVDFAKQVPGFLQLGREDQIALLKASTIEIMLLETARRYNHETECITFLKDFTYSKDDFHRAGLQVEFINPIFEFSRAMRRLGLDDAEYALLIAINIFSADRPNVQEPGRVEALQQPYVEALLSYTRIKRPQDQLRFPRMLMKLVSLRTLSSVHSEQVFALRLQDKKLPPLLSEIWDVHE
In kind it is functional, cell-based.

Experiment [3] in a line: cells.
Experiment [4] addresses Luciferin 4-monooxygenase (Photinus pyralis, UniProt P08659). Kind of experiment: firefly luciferase enzyme inhibitors, dose response, biochemical, luminescence (AID 1891).
Experiment [5] can be described thus: Luminescence Cell-Based Dose Confirmation HTS to Identify Inhibitors of Platelet Dense Granule Release. [Related pubchem assays: 1663 (Primary HTS), 1678 (Summary of Project)]. In kind it is functional.
Experiment [6] deals with Induced myeloid leukemia cell differentiation protein Mcl-1 (Homo sapiens, UniProt Q07820). The experiment is classed as functional.
Chain of Induced myeloid leukemia cell differentiation protein Mcl-1 (Q07820 whole entry, the tested form may be a part): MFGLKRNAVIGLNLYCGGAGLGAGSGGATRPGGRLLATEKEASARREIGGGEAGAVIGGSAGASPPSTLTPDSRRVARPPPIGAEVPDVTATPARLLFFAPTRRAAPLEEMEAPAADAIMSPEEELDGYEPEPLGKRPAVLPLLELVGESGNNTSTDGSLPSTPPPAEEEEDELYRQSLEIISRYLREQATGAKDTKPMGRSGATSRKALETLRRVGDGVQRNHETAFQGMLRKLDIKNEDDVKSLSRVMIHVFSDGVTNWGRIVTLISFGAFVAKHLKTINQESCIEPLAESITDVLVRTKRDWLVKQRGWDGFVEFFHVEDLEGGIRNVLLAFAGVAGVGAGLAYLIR
For experiment [7], the target named is NACHT, LRR and PYD domains-containing protein 3 (Homo sapiens, UniProt Q96P20). Kind of experiment: NALP3 inhibitors in yeast, dose response, luminescent (AID 488799). The experiment is classed as functional.
Chain of NACHT, LRR and PYD domains-containing protein 3 (Q96P20 whole entry, the tested form may be a part): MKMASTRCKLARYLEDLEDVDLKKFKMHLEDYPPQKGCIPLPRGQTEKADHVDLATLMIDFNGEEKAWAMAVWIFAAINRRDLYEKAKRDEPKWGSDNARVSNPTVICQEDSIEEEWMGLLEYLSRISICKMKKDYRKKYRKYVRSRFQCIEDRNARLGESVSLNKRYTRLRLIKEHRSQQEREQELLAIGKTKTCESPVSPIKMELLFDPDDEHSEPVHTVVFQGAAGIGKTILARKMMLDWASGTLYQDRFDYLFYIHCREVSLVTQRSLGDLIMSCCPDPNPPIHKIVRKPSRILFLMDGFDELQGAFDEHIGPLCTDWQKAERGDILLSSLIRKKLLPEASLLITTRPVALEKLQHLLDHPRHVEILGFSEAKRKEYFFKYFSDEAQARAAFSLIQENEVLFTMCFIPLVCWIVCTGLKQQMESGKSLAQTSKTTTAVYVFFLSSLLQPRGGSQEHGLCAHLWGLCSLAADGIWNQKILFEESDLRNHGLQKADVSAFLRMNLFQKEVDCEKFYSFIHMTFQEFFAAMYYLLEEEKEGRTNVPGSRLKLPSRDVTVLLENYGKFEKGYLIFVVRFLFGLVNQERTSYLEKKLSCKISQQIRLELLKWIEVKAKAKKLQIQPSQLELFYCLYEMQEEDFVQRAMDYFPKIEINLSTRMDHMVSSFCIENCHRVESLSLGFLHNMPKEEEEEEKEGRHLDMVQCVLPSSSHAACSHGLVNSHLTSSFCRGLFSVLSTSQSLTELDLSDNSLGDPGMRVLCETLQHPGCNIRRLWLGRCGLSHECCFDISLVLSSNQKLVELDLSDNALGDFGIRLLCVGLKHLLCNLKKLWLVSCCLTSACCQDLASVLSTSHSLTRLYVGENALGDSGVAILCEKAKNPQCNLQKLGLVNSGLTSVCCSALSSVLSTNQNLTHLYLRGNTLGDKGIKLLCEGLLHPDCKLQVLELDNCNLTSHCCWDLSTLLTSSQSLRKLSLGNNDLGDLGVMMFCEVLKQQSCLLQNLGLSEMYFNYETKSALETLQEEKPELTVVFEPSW
Experiment [8] concerns the target Dual specificity protein phosphatase 3 (Homo sapiens, UniProt P51452). The experiment is described as follows: VHR1 inhibitor Ki determination, SAR follow-up, biochemical, colorimetric (AID 2004).
The nature of experiment [9]: HIV-1 Env-mediated cell fusion inhibitors, dose response, CCR5-tropic Env (AID 2279). The experiment is classed as functional.
Experiment [10] has as its target Acylamino-acid-releasing enzyme (Homo sapiens, UniProt P13798). Kind of experiment: PME-1 inhibitor potency by in-gel ABPP, dose response, selectivity assay for PME-1 inhibitor project, cell lysate, mouse brain cytosol, FP-rhodamine, panel member APEH Assay Panel member description: Inhibition of N-acylaminoacyl-peptide hydrolase (APEH) (anti-target) (AID 2366).

The target in another experiment is T2, Bcl-2-like protein 10 (Homo sapiens, UniProt Q9HD36).
T2 sequence (Q9HD36 whole entry): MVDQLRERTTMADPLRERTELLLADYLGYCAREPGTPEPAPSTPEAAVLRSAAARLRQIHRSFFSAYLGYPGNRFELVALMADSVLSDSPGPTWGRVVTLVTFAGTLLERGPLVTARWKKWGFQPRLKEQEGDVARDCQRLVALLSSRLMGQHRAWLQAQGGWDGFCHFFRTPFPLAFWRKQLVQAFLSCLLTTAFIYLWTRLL
Kind of experiment: displacers of TR3 peptide from Bcl-B, primary screen, selectivity assay for Bfl-1 inhibitor project, biochemical, fluorescence polarization, FITC-TR3 peptide (AID 748). In general terms: Fluorescence polarisation rises when a labelled molecule tumbles more slowly, as on binding a larger partner.

Experiment [11] is described as follows: inhibitors of intracellular T. cruzi replication, confirmation, NIH3T3 host cells, beta-gal luminescence (AID 2044).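 Note: intracellular parasites grown in NIH/3T3 mouse fibroblasts as host cells; luminescent beta-galactosidase reporter signal from transgenic T. cruzi replicating inside host cells; inhibitors lower the luminescence signal.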 In kind it is functional, cell-based.
A short description of experiment [12]: microbe, parasite or virus in culture. In kind it is functional. As to conditions: Mycobacterium tuberculosis.
Experiment [13] in a line: cytotoxicity toward NIH3T3 fibroblasts, dose response, counter-screen, cell-based, ATP luminescence, mouse fibroblasts (AID 2010).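 Note: cells exposed to compound for about 90 hours before reading.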 The experiment is classed as functional. Background: Counterscreens check selectivity or assay interference.
Experiment [14] deals with T3, Interleukin-8 (Homo sapiens, UniProt P10145).
T3 sequence (P10145 whole entry): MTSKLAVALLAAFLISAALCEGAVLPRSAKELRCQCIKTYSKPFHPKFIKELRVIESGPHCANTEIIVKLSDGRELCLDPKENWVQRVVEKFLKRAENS
Kind of experiment: SAR analysis of Tumor necrosis factor alpha (TNF-alpha) induced IL-8 secretion in MCF-7/NOD1 cells - Set 2. [Related pubchem assays (depositor defined):AID1575, AID2250, AID2260]. In kind it is functional, cell-based.

Experiment [15] concerns the target T3, Interleukin-8. The experiment is described as follows: SAR analysis of GM-Tri-DAP induced IL-8 secretion in MCF-7/NOD1 cells - Set 2. [Related pubchem assays (depositor defined):AID1575, AID1578, AID2333]. The experiment is classed as functional, cell-based.
The next experiment deals with Tumor necrosis factor (Homo sapiens, UniProt P01375). Kind of experiment: TNFa-triggered NF-kB activation inhibitors, SAR follow-up, cell-based, revised (AID 2337). The experiment is classed as functional.
Chain of Tumor necrosis factor (P01375 whole entry): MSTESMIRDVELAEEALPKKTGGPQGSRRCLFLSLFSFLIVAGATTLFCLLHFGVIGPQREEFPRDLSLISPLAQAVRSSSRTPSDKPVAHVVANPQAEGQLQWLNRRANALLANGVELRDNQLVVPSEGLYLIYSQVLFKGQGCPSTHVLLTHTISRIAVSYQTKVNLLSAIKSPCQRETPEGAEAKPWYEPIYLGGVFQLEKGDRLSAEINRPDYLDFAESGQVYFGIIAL
The nature of experiment [16]: THP-1 cell cytotoxicity, dose response, cytotoxicity control for non-replicating M. tuberculosis project (AID 489025). In kind it is functional.
In experiment [17] the target is Nucleotide-binding oligomerization domain-containing protein 1 (Homo sapiens, UniProt Q9Y239). Kind of experiment: NOD1 signaling inhibitors, SAR follow-up, revised (AID 2333). In kind it is functional.
Chain of Nucleotide-binding oligomerization domain-containing protein 1 (Q9Y239 whole entry, the tested form may be a part): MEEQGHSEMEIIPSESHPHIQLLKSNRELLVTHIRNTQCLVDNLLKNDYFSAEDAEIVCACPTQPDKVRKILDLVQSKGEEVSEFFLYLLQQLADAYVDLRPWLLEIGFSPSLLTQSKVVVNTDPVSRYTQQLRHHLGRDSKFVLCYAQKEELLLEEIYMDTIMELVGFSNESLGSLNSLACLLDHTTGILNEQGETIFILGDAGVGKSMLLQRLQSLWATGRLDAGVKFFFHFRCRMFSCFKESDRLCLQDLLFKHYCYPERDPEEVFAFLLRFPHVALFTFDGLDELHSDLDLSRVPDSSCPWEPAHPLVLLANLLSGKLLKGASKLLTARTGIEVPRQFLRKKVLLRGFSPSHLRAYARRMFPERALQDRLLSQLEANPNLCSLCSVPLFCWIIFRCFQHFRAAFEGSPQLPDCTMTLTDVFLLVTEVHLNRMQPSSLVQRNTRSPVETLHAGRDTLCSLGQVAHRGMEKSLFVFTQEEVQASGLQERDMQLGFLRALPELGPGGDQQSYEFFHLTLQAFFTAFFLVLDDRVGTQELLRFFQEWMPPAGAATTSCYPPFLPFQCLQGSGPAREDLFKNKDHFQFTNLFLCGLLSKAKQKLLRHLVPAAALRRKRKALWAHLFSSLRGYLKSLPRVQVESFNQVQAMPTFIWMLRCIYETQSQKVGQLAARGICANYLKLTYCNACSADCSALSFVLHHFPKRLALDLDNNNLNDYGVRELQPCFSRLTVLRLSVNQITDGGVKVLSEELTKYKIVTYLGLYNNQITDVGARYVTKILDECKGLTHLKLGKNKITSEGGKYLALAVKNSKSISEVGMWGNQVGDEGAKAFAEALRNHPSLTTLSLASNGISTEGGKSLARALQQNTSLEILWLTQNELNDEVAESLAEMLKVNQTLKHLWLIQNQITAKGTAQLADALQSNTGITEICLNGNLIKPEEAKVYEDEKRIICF
Experiment [18] is described as follows: HepG2 cell cytotoxicity, dose response, cytotoxicity control for non-replicating M. tuberculosis project (AID 489018). In kind it is functional. As to conditions: Mycobacterium tuberculosis.
The nature of experiment [19]: Vero E6 cell cytotoxicity, dose response, cytotoxicity control for non-replicating M. tuberculosis project, secondary assay (AID 492998). As to conditions: Vero C1008. The experiment is classed as functional, VeroE6.
The target in experiment [20] is Nucleotide-binding oligomerization domain-containing protein 2 (Homo sapiens, UniProt Q9HC29). Kind of experiment: PubChem AID 2334. In kind it is functional.
Chain of Nucleotide-binding oligomerization domain-containing protein 2 (Q9HC29 whole entry, the tested form may be a part): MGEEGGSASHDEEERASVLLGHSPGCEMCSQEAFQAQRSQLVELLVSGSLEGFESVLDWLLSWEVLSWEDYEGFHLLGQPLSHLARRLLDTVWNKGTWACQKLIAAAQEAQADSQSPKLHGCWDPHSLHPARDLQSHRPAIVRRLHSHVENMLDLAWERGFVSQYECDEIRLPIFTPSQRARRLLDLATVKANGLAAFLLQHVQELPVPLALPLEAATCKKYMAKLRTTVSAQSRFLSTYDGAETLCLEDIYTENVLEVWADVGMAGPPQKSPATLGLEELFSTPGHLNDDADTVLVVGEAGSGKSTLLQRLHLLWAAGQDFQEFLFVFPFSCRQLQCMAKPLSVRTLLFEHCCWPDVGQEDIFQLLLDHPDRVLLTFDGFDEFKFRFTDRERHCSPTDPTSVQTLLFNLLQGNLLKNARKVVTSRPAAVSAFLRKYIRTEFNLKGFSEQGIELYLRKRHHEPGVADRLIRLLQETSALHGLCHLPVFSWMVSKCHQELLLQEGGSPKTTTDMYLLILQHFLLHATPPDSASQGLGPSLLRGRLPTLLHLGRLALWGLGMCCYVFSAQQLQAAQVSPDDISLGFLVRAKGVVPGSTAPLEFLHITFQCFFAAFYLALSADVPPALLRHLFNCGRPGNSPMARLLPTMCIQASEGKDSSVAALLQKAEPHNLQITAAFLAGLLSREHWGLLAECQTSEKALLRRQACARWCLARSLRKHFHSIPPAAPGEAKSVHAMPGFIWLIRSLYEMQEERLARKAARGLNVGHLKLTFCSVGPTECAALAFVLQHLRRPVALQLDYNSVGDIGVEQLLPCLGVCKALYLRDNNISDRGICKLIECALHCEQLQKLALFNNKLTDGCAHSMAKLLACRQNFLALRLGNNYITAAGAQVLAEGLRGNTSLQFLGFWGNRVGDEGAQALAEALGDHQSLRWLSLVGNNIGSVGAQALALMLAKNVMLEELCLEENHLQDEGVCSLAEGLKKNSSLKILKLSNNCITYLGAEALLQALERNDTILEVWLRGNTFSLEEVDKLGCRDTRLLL
The nature of experiment [21]: cells. In kind it is functional.
Another experiment has as its system HEK293. Kind of experiment: cells. The following applies: Homo sapiens.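 Note: cells exposed to compound for 14 hours overnight before viability readout.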

The structures appear in SMILES notation. Active and inactive are the calls of the source. A value given as a limit tells only on which side of the number the result lay.

Chain of Luciferin 4-monooxygenase (P08659 whole entry): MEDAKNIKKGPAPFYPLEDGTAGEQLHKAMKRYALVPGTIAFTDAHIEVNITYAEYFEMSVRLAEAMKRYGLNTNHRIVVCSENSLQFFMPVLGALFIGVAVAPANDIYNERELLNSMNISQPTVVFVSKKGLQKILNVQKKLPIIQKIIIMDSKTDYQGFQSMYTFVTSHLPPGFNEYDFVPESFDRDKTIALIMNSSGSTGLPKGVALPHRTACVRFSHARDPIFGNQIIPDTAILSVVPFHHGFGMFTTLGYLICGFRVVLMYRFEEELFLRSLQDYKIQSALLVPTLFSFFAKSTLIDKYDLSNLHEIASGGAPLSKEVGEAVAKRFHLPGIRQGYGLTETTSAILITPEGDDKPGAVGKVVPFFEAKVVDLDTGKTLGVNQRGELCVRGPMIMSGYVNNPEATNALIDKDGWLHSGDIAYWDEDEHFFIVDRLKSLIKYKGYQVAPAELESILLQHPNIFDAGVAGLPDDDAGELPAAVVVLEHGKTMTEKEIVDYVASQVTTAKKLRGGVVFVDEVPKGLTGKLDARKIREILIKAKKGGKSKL
Chain of Acylamino-acid-releasing enzyme (P13798 whole entry): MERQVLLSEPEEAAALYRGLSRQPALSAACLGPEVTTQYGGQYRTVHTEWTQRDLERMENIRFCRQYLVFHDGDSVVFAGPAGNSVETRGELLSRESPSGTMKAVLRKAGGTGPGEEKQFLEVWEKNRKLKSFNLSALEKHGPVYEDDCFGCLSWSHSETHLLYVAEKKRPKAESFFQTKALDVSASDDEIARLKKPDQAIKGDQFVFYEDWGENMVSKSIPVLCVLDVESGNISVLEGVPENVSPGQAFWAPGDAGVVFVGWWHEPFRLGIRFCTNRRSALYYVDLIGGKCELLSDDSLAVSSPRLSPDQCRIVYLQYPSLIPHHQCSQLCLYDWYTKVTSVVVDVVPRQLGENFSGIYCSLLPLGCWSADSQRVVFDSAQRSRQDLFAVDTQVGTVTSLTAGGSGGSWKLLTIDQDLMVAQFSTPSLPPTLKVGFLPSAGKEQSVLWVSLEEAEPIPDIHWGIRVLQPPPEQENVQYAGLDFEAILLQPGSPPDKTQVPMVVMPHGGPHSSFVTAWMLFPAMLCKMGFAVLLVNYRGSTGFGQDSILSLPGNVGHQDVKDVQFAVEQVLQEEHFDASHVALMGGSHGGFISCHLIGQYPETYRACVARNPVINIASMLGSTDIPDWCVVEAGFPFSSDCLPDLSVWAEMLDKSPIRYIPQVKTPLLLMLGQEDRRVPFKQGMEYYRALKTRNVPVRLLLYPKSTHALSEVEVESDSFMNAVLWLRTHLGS

As for `O=C(N/N=C/c1cn(-c2ccccc2)nc1-c1cc2ccccc2o1)c1cccnc1`, the EC50 in [1] was > 40 µM (inactive); in experiment [2] it was > 67.5 µM (inactive); in “cells [3]”, > 67.5 µM (inactive).
Take `Oc1c(/C=N/c2ccccn2)sc2ccccc12`: the EC50 is 1.8 µM (active) in experiment [4] and 11.5 µM (active) in experiment [5]. Moreover, the IC50 in experiment [6] is 1.64 µM (active); in experiment [7] it was 10.2 µM (active).
Turning to `Cc1cc(Br)c(-c2ccc(/C=C3/NC(=S)NC3=O)o2)cc1C`, in experiment [8], the Ki was 3.19 µM (active).
As to `COc1ccc(S(=O)(=O)Nc2ccccc2C(=O)Nc2nc(-c3ccc(F)cc3)cs2)cc1OC`, the IC50 in [9] was 4.41 µM (active).
For the compound `CC(C)(C)S(=O)(=O)/C(C#N)=C/c1cccn1S(=O)(=O)c1ccccc1`, the IC50 in [10] was > 50 µM (inactive).
In the case of `CC(=O)C1=C(O)C(=O)N(Cc2ccccc2)C1c1ccco1` (centres undefined), at Bcl-2-like protein 10, the IC50 is > 100 µM (inactive).
For `CCC(=O)Nc1nc2ccccc2n1Cc1ccc(Cl)cc1`, the results for the EC50 in experiment [11] and in [13] were 1.1 µM (active) and 8.28 µM (active), respectively. Also, the CC50 in experiment [12] was 33.9 µM (active); in experiment [16], > 40 µM (active); in experiment [18], > 20 µM (active); in [19], 11 µM (active). The IC50 on Interleukin-8 [14] is > 25 µM (inactive); on Interleukin-8 [15], > 25 µM (inactive); at Tumor necrosis factor it was > 20 µM (inactive); in experiment [17] it was 12.3 µM (active); in [20], 15.8 µM (active); in “cells [21]” it was 290 nM (active). The IC50 in the experiment on HEK293 is > 20 µM (inactive).
